Laboratory results reported in patent US20050282743A1, “Molecular interactions in cells” (Arbor Vita Corporation, priority 2001, published 2005).
Ends that are not written are not given here. Peptide text beside a SMILES is read from it. * marks the point of attachment. Biotin = O=C1N[C@H]2[C@H](CS[C@H]2CCCCC(=O)*)N1

What was measured:
Assay in all cases: G' assay (10 uM PL peptide), results of TABLE 7 and TABLE 12
Format in all cases: binding
[1] = target: T1, PDZ protein (GST-PDZ fusion) (Homo sapiens, UniProt Q96JH8); conditions: PDZ FLJ 10324, PDZ Domain 1
T1 construct: made in house; host or cells: E. coli (DH5alpha, BL21 or JM109)
T1 sequence (Q96JH8 1-1075): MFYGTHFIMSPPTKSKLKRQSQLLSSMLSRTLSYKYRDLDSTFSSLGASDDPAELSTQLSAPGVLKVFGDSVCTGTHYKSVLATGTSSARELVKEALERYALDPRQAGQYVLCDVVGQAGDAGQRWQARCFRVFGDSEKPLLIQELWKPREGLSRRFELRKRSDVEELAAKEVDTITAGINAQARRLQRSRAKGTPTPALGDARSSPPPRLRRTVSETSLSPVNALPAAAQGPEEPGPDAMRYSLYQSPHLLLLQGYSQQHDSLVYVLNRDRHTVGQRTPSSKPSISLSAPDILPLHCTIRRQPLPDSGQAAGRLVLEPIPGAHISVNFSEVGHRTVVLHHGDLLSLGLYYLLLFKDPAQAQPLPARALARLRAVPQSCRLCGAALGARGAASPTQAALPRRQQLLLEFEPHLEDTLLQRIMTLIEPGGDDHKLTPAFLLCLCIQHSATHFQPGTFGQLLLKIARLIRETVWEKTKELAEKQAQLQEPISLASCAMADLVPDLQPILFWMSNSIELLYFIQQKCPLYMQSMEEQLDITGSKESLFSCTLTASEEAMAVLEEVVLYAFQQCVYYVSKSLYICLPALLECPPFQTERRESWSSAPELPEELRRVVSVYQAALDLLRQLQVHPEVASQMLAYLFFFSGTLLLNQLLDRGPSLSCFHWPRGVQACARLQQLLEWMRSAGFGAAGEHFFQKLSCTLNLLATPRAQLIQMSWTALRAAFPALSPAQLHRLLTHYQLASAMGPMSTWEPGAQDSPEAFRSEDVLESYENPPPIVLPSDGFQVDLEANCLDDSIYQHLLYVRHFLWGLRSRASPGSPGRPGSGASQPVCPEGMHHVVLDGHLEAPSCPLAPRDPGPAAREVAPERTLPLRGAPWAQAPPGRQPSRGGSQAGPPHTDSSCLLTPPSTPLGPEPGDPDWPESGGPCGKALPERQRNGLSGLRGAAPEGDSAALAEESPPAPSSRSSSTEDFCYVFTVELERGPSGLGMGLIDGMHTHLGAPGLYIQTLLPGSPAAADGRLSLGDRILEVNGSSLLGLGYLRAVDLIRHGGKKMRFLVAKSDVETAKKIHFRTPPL
Summary of the method: (§1)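 Same steps as the G-zero format, apart from a peptide concentration of 10 uM in place of 20 uM in step 2. Amino-terminally biotinylated PL peptides bind GST-PDZ fusions, and retained peptide is quantified by 450 nm absorbance.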

[2] = target: T2, PDZ protein (GST-PDZ fusion) (Homo sapiens, UniProt Q02410)
T2 construct: made in house; host or cells: E. coli (DH5alpha, BL21 or JM109)
T2 sequence (Q02410 1-837): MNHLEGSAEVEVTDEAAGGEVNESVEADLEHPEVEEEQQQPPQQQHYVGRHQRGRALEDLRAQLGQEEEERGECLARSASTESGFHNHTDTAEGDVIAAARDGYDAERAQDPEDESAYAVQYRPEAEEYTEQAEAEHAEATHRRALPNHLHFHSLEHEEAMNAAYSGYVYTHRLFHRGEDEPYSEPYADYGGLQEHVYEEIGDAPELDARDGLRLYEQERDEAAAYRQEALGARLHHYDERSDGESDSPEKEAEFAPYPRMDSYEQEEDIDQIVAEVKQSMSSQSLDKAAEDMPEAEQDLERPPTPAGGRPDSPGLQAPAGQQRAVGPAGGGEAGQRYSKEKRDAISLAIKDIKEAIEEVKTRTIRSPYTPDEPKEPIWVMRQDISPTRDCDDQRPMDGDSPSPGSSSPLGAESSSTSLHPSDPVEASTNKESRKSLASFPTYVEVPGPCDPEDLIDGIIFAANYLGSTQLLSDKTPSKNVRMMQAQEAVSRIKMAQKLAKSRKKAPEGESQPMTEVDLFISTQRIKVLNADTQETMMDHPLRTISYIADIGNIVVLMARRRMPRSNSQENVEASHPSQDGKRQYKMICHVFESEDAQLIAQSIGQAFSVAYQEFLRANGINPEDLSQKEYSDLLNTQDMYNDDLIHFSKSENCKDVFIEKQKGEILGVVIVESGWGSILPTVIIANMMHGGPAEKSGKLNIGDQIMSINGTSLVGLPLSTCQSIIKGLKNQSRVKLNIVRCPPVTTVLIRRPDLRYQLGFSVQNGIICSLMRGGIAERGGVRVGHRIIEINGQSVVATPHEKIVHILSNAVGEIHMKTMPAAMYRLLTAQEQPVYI
Summary of the method: as §1

[3] = test system: PDZ protein (GST-PDZ fusion)
Summary of the method: as §1

[4] = PDZ HEMBA 1003117, PDZ Domain 1

Row | Classification [1] | Classification ([2]; PDZ Mint 1, PDZ Domain 1, 2) | Classification ([2]; PDZ Mint 1, PDZ Domain 2) | Classification ([2]; PDZ Mint 1, PDZ Domain 1) | Molecule | Classification [3, 4] | Classification ([3]; PDZ BAI-1, PDZ Domain 2) | Classification ([3]; PDZ BAI-1, PDZ Domain 5) | Classification ([3]; PDZ BAI-1, PDZ Domain 3) | Classification ([3]; PDZ BAI-1, PDZ Domain 6) | Classification ([3]; PDZ Unnamed Protein, PDZ Domain 2) | Classification ([3]; PDZ SHANK, PDZ Domain 1)
1 | 5 (A450 nm of 4 more than 2× repeated) | 3 (A450 nm 2-3) | – | – | CC[C@H](C)[C@H](NC(=O)[C@H](Cc1ccc(O)cc1)NC(=O)[C@H](CC(C)C)NC(=O)[C@H](CCC(N)=O)NC(=O)[C@H](Cc1c[nH]cn1)NC(=O)[C@H](CO)NC(=O)[C@H](C)NC(=O)[C@H](CC(C)C)NC(=O)[C@@H](NC(=O)[C@H](CC(=O)O)NC(=O)[C@H](CCSC)NC(=O)[C@H](Cc1ccccc1)NC(=O)[C@@H]1CCCN1C(=O)[C@H](CCCNC(=N)N)NC(=O)[C@@H](NC(=O)[C@H](CC(C)C)NC(=O)[C@H](CC(N)=O)NC(=O)[C@H](CC(=O)O)NC(=O)[C@@H](NC(=O)[C@H](CO)NC(=O)CCCC[C@@H]1SC[C@@H]2NC(=O)N[C@@H]21)[C@@H](C)O)C(C)C)[C@@H](C)O)C(=O)O [presenilin-2] (Biotin-STDNLVRPFMDTLASHQLYI-OH; C-terminus assumed) | 4 (A450 nm 3-4) | – | – | – | – | – | –
2 | 3 (A450 nm 2-3) | 5 (A450 nm of 4 more than 2× repeated) | 3 (A450 nm 2-3) | – | PYSELNYETSHYPASPDSWV (Biotin-PYSELNYETSHYPASPDSWV) [catenin - delta 2] | 1 (A450 nm 0-1) | – | – | 1 (A450 nm 0-1) | – | – | –
3 | 2 (A450 nm 1-2) | 1 (A450 nm 0-1) | 1 (A450 nm 0-1) | – | CC(C)C[C@H](NC(=O)[C@H](CC(C)C)NC(=O)[C@@H](NC(=O)[C@H](CC(=O)O)NC(=O)CCCC[C@@H]1SC[C@@H]2NC(=O)N[C@@H]21)[C@@H](C)O)C(=O)N[C@@H](CC(C)C)C(=O)N[C@H](C(=O)N[C@@H](CCC(=O)O)C(=O)N[C@@H](CC(N)=O)C(=O)N[C@@H](CCC(=O)O)C(=O)NCC(=O)N[C@@H](CC(=O)O)C(=O)N[C@@H](CCCCN)C(=O)N[C@H](C(=O)N[C@@H](CCC(=O)O)C(=O)N[C@@H](CCC(=O)O)C(=O)N[C@@H](CCC(N)=O)C(=O)N[C@H](C(=O)N[C@@H](CO)C(=O)N[C@@H](Cc1ccc(O)cc1)C(=O)N[C@H](C(=O)O)C(C)C)C(C)C)[C@@H](C)O)[C@@H](C)O [5H2B_HUMAN] (Biotin-DTLLLTENEGDKTEEQVSYV-OH; C-terminus assumed) | 1 (A450 nm 0-1) | – | – | 4 (A450 nm 3-4) | – | – | –
4 | 1 (A450 nm 0-1) | – | – | 1 (A450 nm 0-1) | A2AA_HUMAN (modified) (Biotin-HDFRRAFKKILARGDRKRIV; not fully specified) | 1 (A450 nm 0-1) | – | – | – | 3 (A450 nm 2-3) | 1 (A450 nm 0-1) | –
5 | 5 (A450 nm of 4 more than 2× repeated) | 5 (A450 nm of 4 more than 2× repeated) | – | 3 (A450 nm 2-3) | CC[C@H](C)[C@H](NC(=O)[C@H](Cc1ccc(O)cc1)NC(=O)[C@@H](NC(=O)[C@@H]1CCCN1C(=O)[C@H](CCC(N)=O)NC(=O)[C@H](CCC(=O)O)NC(=O)[C@H](CCC(N)=O)NC(=O)[C@H](C)NC(=O)[C@@H](NC(=O)[C@H](CC(C)C)NC(=O)[C@H](CC(C)C)NC(=O)[C@H](CCCNC(=N)N)NC(=O)[C@H](Cc1ccc(O)cc1)NC(=O)[C@H](CCSC)NC(=O)[C@H](C)NC(=O)[C@H](C)NC(=O)[C@@H]1CCCN1C(=O)[C@H](CCSC)NC(=O)[C@@H](NC(=O)[C@H](CCCCN)NC(=O)CCCC[C@@H]1SC[C@@H]2NC(=O)N[C@@H]21)[C@@H](C)O)[C@@H](C)O)C(C)C)C(=O)O [MINT-1] (Biotin-KTMPAAMYRLLTAQEQPVYI-OH; C-terminus assumed) | 3 (A450 nm 2-3) | – | – | – | – | – | –
6 | 1 (A450 nm 0-1) | 1 (A450 nm 0-1) | – | – | CC(C)C[C@H](NC(=O)CNC(=O)[C@@H](NC(=O)[C@H](CO)NC(=O)[C@H](CC(N)=O)NC(=O)[C@H](Cc1ccccc1)NC(=O)CNC(=O)[C@H](C)NC(=O)[C@H](C)NC(=O)[C@H](Cc1ccccc1)NC(=O)[C@@H](NC(=O)CCCC[C@@H]1SC[C@@H]2NC(=O)N[C@@H]21)[C@@H](C)O)[C@@H](C)O)C(=O)N1CCC[C@H]1C(=O)N[C@@H](Cc1c[nH]cn1)C(=O)N[C@@H](CO)C(=O)N[C@H](C(=O)N[C@H](C(=O)N[C@@H](CCCNC(=N)N)C(=O)N[C@H](C(=O)O)C(C)C)[C@@H](C)O)[C@@H](C)O [Neuroligin] (Biotin-TFAAGFNSTGLPHSTTRV-OH; C-terminus assumed) | – | – | – | – | – | – | 2 (A450 nm 1-2)

Row | Molecule | Classification [1] | Classification ([2]; PDZ Mint 1, PDZ Domain 1, 2) | Classification ([2]; PDZ Mint 1, PDZ Domain 2) | Classification ([2]; PDZ Mint 1, PDZ Domain 1) | Classification [3, 4] | Classification ([3]; PDZ BAI-1, PDZ Domain 2) | Classification ([3]; PDZ BAI-1, PDZ Domain 5) | Classification ([3]; PDZ BAI-1, PDZ Domain 3) | Classification ([3]; PDZ BAI-1, PDZ Domain 6) | Classification ([3]; PDZ Unnamed Protein, PDZ Domain 2) | Classification ([3]; PDZ SHANK, PDZ Domain 1)
7 | ISGTPTSTMVHGMTSSSSVV (Biotin-ISGTPTSTMVHGMTSSSSVV) [Clasp-2] | 1 (A450 nm 0-1) | 1 (A450 nm 0-1) | – | – | – | 1 (A450 nm 0-1) | 1 (A450 nm 0-1) | – | – | – | –
8 | CC[C@H](C)[C@H](NC(=O)[C@H](C)NC(=O)[C@H](CC(C)C)NC(=O)[C@H](Cc1c[nH]c2ccccc12)NC(=O)[C@H](Cc1c[nH]cn1)NC(=O)[C@H](CCC(N)=O)NC(=O)[C@H](CC(C)C)NC(=O)[C@H](CCC(N)=O)NC(=O)[C@H](Cc1ccccc1)NC(=O)[C@H](CCC(N)=O)NC(=O)[C@H](CCCNC(=N)N)NC(=O)[C@@H](NC(=O)[C@H](CC(=O)O)NC(=O)[C@H](CCCNC(=N)N)NC(=O)[C@H](CCC(N)=O)NC(=O)[C@H](C)NC(=O)[C@@H](NC(=O)[C@H](CC(C)C)NC(=O)[C@H](Cc1c[nH]cn1)NC(=O)[C@H](Cc1c[nH]cn1)NC(=O)CCCC[C@@H]1SC[C@@H]2NC(=O)N[C@@H]21)C(C)C)[C@@H](C)CC)C(=O)O [noradrenaline transporter] (Biotin-HHLVAQRDIRQFQLQHWLAI-OH; C-terminus assumed) | 3 (A450 nm 2-3) | 3 (A450 nm 2-3) | – | – | – | – | – | – | – | – | –
